Laboratory results taken from patent US11780852B2, “Methods for treating Crohn's disease using 3-((1R,3s,5S)-3-((7-((5-methyl-1H-pyrazol-3-yl)amino)-1,6-naphthyridin-5-yl)amino)-8-azabicyclo[3.2.1]octan-8-yl)propanenitrile” (priority 2015, dated 2023).
Like-named read-outs stand apart in the source and are kept apart here.

What was measured:
JAK1 = JAK1 (Homo sapiens (Human), UniProt P23458); format: biochemical
Protocol: (§1) Assay 1: Biochemical JAK and Off-Target Kinase Assays
(§2) A panel of four LanthaScreen JAK biochemical assays (JAK1, 2, 3 and Tyk2) were carried in a common kinase reaction buffer (50 mM HEPES, pH 7.5, 0.01% Brij-35, 10 mM MgCl2, and 1 mM EGTA). Recombinant GST-tagged JAK enzymes and a GFP-tagged STAT1 peptide substrate were obtained from Life Technologies.
(§3) Serially diluted compounds were pre-incubated with each of the four JAK enzymes and the substrate in white 384-well microplates (Corning) at ambient temperature for 1 h. ATP was subsequently added to initiate the kinase reactions in 10 μL total volume, with 1% DMSO. […] Kinase reactions were allowed to proceed for 1 hour at ambient temperature before a 10 μL preparation of EDTA (10 mM final concentration) and Tb-anti-pSTAT1 (pTyr701) antibody (Life Technologies, 2 nM final concentration) in TR-FRET dilution buffer (Life Technologies) was added. The plates were allowed to incubate at ambient temperature for 1 h before being read on the EnVision reader (Perkin Elmer).
(§4) Results were expressed as pIC50 (negative logarithm of IC50) and subsequently converted to pKi (negative logarithm of dissociation constant, Ki) using the Cheng-Prusoff equation.

JAK2 = JAK2 (Homo sapiens (Human), UniProt O60674); format: biochemical
Protocol: as §1, §2, §3, §4

TYK2 = TYK2 (Homo sapiens (Human), UniProt P29597); format: biochemical
Protocol: as §1, §2, §3, §4

[1] = system: IL-13 induced STAT6 phosphorylation in BEAS-2B human lung epithelial cells
[2] = system: IL-4 induced STAT6 phosphorylation in THP-1 human monocytic cells
[3] = system: oxazolone-induced colitis; assay: Mouse model of oxazolone-induced colitis; format: in vivo, BALB/C mice; settings: PO, 1, 3, and/or 10 mg/kg BID (doses up to 10 mg/kg BID)
Protocol: Assay 7: Mouse Model of Oxazalone-Induced Colitis
Oxazolone-induced colitis is an experimental model that has a histological resemblance to human ulcerative colitis (Heller et al. Immunology, 2002, 17, 629-638). Adult BALB/C mice from Harlan were used in the assay. On day 1, animals were lightly anesthetized with isoflurane and the hairs between the shoulder were carefully removed before oxazolone (4%, 150 μL, 4:1 acetone:olive oil formulation) or vehicle solution was slowly applied for skin sensitization. Seven days after skin sensitization, the mice were fasted overnight, anesthetized with isoflurane inhalation, and a 1 mL syringe equipped with a 3.5-F catheter, filled with oxazolone solution, was inserted carefully about 4 cm into the colon of the mouse. Following insertion, 50 μL of the oxazolone solution (1%, 1:1 ethanol:water formulation) was injected very slowly (over 30 sec using an injection pump) into the colon. The catheter was removed and the mice were held vertically (head down) for 2 min to ensure that the entire oxazolone solution remained inside the colon. Drug treatment (PO, BID or TID) or vehicle was initiated a day prior to the oxazolone intrarectal (IR) challenge. Two-day post oxazolone intrarectal challenge, the Disease Activity Index (DAI) was assessed by treatment-blinded experimenters for each mouse according to the criteria score: stool consistency score (0, normal; 2, loose; 4, diarrhea), gross bleeding score (0, absence; 2, blood tinged; 4, presence), and weight loss score (0, none; 1, 1%-5%; 2, 5%-10^%; 3, 10%-20%; 4, more than 20%); DAI=average of (stool consistency score+gross bleeding score+weight loss score).
Selected compounds of the invention were tested in the assay. Efficacy in the model is evidenced by a decrease in DAI score as compared with the score from vehicle treated animals.

[4] = Determination of absorption in cannulated rats; format: in vivo, Sprague Dawley rats; settings: rat, oral dose
Protocol: Drug levels were determined using an LC-MS-MS method. The resulting drug levels were used to compute the IV pharmacokinetic parameters: AUC IV and Dose IV. (2) Rats that have been cannulated in their portal vein (PV) and also in their jugular vein (JV) were dosed orally with test compound. Following oral dosing, plasma samples were typically collected from 0-6 hr from both the portal vein and the jugular vein. Drug levels were determined using an LC-MS-MS method. The resulting drug levels were used to compute the following pharmacokinetic parameters: AUC PO PV, AUC PO JV, and Dose PO. Using data derived from the above studies, the oral bioavailability F %, and the quantities Fa % and Fh % were calculated from the following formulas: F %=(AUC PO JV/AUC IV)*(Dose IV/Dose PO)*100 Fa %=(AUC PO PV/AUC IV)*(Dose IV/Dose PO)*100 Fh %=AUC PO JV/AUC PO PV where: AUC PO JV=Area under the curve following oral dose and plasma collected from the jugular vein AUC PO PV=Area under the curve following oral dose and plasma collected from the portal vein AUC IV=Area under the curve following an intravenous dose Dose IV=Intravenous Dose in mg/kg Dose PO=Oral Dose in mg/kg

[5] = 5% to 90% relative humidity, room temperature; listed as Crystalline 3-(1R,3s,5S)-3-((7-((5-methyl-H-pyrazol-3-yl)amino)-1,6-naphthyridi))
Protocol: A weighed sample was used and the humidity was lowest possible value (close to 0% RH) at the start of the analysis. The DMS analysis consisted of an initial drying step (0% RH) for 120 minutes, followed by two cycles of sorption and desorption with a scan rate of 5% RH/step over the humidity range of 5% RH to 90% RH. The DMS run was performed isothermally at 25° C.

[6] = system: splenic NK, B and T cells; assay: Immunosuppression effects in mouse splenic natural killer (NK) cells; format: in vivo, Balb/C mice; settings: mouse, PO BID three days
Protocol: Assay 8: Immunosuppression Effects in Mouse Splenic Natural Killer (NK) Cells Depletion of mouse splenic cells is an experimental model of immunosuppression (Kudlacz et al., Am. J. of Transplantation, 2004, 4, 51-57). […] Adult male Balb/C mice (12-14 weeks of age) from Harlan were used for the study. […] Spleens were harvested 1 or 2 h post last dose and crushed immediately for cell subtype staining. Prior to fixation, fluorophore-labelled antibodies for CD19 (FITC; B cells), CD3e (PE; pan T cells) and DX5 (APC; NK cells) were incubated with splenocyte samples from each animal to allow for simultaneous, multiple subtype % analysis on the flow cytometer. The number of total spleen cells for each animal was measured by Scepter™ 2.0 Handheld Automated Cell Counter. The absolute number of lymphocyte subtype population (e.g., splenic B, T and NK cells) was calculated from the percentage of each subtype times total spleen cells for each animal. A one way ANOVA, with Dunnett's post hoc test, was used to compare the splenic lymphocytes number of the vehicle and test compound groups. The a level was set at p<0.05. Data were presented as the mean±SEM for each group.

[7] = BEAS-2B cells, IL-13 induced STAT6 phosphorylation
[8] = THP-1 cells, IL-4 induced STAT6 phosphorylation

JAK1, sequence (P23458 whole entry): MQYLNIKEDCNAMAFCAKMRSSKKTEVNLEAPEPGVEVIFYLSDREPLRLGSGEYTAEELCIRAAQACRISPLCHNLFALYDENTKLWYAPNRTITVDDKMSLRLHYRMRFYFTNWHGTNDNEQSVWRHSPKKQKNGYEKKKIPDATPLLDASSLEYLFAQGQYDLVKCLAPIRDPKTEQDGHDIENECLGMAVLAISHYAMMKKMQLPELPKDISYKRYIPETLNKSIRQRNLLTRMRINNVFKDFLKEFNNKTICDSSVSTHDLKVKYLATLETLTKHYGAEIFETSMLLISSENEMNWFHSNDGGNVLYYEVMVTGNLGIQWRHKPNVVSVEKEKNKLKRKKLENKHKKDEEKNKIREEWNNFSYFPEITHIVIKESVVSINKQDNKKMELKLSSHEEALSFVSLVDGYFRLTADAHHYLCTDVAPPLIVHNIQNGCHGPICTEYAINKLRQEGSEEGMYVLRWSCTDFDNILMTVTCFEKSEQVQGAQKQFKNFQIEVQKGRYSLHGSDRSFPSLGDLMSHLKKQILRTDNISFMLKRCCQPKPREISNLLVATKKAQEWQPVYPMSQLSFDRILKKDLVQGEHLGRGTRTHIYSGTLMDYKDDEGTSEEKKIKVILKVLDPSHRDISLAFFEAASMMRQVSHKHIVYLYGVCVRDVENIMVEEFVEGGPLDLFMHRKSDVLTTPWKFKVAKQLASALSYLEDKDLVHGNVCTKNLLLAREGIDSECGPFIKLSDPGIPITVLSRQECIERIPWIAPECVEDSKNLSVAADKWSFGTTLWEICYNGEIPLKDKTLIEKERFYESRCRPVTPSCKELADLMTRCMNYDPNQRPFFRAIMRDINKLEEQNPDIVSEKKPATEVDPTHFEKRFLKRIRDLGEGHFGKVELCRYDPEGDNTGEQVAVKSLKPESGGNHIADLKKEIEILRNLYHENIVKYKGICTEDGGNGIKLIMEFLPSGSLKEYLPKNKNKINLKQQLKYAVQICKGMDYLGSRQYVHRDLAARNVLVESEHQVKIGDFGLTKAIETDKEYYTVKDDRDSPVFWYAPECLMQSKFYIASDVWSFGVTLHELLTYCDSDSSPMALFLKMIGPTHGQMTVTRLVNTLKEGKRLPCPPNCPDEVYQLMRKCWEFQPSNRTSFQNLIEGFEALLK
TYK2, sequence (P29597 whole entry): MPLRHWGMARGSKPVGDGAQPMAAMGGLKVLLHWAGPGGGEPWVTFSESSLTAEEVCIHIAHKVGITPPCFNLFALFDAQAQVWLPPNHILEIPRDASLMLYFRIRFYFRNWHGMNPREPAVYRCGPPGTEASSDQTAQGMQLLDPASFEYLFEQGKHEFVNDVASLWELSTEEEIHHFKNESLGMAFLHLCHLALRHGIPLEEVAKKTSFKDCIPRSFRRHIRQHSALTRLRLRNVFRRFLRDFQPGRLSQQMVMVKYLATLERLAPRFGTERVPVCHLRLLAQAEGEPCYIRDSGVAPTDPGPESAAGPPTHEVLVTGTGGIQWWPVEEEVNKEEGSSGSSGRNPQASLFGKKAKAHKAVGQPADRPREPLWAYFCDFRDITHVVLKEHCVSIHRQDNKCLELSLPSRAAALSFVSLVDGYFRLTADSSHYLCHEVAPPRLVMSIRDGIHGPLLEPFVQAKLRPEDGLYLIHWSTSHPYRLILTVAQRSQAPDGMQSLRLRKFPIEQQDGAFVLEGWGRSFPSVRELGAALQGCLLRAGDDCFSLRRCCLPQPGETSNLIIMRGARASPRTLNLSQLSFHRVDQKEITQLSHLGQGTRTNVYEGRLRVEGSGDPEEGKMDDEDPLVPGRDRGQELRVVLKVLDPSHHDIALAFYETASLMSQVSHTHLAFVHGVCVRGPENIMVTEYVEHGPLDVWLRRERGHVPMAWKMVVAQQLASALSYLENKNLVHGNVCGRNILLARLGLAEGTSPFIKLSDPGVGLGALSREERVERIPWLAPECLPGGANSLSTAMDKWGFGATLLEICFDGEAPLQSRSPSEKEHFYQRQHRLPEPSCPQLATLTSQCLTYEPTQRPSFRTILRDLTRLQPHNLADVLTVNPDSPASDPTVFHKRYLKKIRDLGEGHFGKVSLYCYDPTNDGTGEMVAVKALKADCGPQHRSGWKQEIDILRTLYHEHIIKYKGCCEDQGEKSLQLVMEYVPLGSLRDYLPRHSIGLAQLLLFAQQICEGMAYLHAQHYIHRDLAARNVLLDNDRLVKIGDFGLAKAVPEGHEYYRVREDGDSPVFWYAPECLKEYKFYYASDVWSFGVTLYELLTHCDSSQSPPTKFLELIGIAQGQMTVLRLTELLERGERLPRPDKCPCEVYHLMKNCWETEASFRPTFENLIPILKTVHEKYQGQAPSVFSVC
JAK2, sequence (O60674 whole entry): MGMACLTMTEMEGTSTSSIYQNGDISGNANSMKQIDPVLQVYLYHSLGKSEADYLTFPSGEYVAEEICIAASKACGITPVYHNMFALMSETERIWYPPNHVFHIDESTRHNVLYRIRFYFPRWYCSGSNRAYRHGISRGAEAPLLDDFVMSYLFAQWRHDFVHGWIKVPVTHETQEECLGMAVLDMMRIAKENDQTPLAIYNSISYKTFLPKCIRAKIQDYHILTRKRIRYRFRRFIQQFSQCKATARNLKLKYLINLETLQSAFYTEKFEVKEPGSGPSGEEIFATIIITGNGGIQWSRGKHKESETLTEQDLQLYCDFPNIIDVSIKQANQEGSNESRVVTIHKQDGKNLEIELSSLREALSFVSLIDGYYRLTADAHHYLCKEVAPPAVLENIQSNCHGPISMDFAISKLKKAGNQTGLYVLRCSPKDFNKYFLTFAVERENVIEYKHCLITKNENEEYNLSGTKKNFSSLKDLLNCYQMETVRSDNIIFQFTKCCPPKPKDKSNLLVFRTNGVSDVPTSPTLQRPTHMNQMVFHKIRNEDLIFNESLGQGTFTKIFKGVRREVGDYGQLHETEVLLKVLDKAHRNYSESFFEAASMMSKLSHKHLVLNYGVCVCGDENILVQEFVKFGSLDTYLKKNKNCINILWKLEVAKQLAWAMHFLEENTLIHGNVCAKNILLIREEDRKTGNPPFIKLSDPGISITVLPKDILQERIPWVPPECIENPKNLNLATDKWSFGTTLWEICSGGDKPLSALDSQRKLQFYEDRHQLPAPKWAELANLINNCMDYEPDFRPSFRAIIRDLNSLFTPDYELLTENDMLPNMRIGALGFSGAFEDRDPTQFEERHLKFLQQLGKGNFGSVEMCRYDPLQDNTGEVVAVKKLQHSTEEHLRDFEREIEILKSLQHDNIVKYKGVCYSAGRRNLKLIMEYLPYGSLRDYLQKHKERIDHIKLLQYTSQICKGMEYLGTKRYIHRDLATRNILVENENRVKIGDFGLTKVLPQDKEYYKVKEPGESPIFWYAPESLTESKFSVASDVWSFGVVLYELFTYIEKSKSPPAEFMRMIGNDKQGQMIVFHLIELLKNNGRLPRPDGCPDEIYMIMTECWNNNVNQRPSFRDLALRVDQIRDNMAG

Cc1cc(Nc2cc3ncccc3c(N[C@@H]3C[C@H]4CC[C@@H](C3)N4CC(F)(F)F)n2)n[nH]1 [Example 1-14]
JAK 1 (pKi) (JAK1): B (B represents a pKi value between 9 and 10 (Ki between 1 nM and 0.1 nM)) | JAK 2 (pKi) (JAK2): B (B represents a pKi value between 9 and 10 (Ki between 1 nM and 0.1 nM)) | Tyk 2 (pKi) (TYK2): B (B represents a pKi value between 9 and 10 (Ki between 1 nM and 0.1 nM)) | BEAS2B pIC50 [1, 7]: A (A represents a pEC50 value ≥7.5 (EC50≤32 nM)) | THP-1 IL4 pIC50 [2, 8]: A (A represents a pEC50 value ≥7.5 (EC50≤32 nM))

Cc1cc(Nc2cc3ncccc3c(N[C@@H]3C[C@H]4CC[C@@H](C3)N4Cc3cccc(O)c3)n2)n[nH]1 [Example 1-19]
Tyk 2 (pKi) (TYK2): C (C represents a pKi value between 7 and 9 (Ki between 100 nM and 1 nM)) | THP-1 IL4 pIC50 [2, 8]: B (B represents a pEC50 value between 6.7 and 7.5 (EC50 between 200 nM and 32 nM))

Cc1cc(Nc2cc3ncccc3c(N[C@@H]3C[C@H]4CC[C@@H](C3)N4CC3(C#N)CC3)n2)n[nH]1 [Example 1-24]
BEAS2B pIC50 [1, 7]: A (A represents a pEC50 value ≥7.5 (EC50≤32 nM)) | THP-1 IL4 pIC50 [2, 8]: B (B represents a pEC50 value between 6.7 and 7.5 (EC50 between 200 nM and 32 nM))

Cc1cc(Nc2cc3ncccc3c(N[C@@H]3C[C@H]4CCC[C@@H](C3)N4CC(F)(F)F)n2)n[nH]1 [Example 1-45]
JAK 1 (pKi) (JAK1): B (B represents a pKi value between 9 and 10 (Ki between 1 nM and 0.1 nM)) | JAK 2 (pKi) (JAK2): B (B represents a pKi value between 9 and 10 (Ki between 1 nM and 0.1 nM)) | Tyk 2 (pKi) (TYK2): B (B represents a pKi value between 9 and 10 (Ki between 1 nM and 0.1 nM))

CCC(=O)N1[C@@H]2CC[C@H]1C[C@H](Nc1nc(Nc3cc(C)[nH]n3)cc3ncccc13)C2 [Example 2-1]
DAI score as compared with vehicle treated animals [3]: did not exhibit a statistically significant decrease | BEAS2B pIC50 [1, 7]: B (B represents a pEC50 value between 6.7 and 7.5 (EC50 between 200 nM and 32 nM)) | THP-1 IL4 pIC50 [2, 8]: B (B represents a pEC50 value between 6.7 and 7.5 (EC50 between 200 nM and 32 nM))

Cc1cc(Nc2cc3ncccc3c(N[C@@H]3C[C@H]4CC[C@@H](C3)N4C(=O)C3(C)CCCC3)n2)n[nH]1 [Example 2-10]
JAK 1 (pKi) (JAK1): B (B represents a pKi value between 9 and 10 (Ki between 1 nM and 0.1 nM)) | THP-1 IL4 pIC50 [2]: B (key: A represents a pEC50 value ≥7.5 (EC50≤32 nM); B represents a pEC50 value between 6.7 and 7.5 (EC50 between 200 nM and 32 nM); C represents a pEC50 value <6.7 (EC50>200 nM))

Cc1cc(Nc2cc3ncccc3c(N[C@@H]3C[C@H]4CC[C@@H](C3)N4C(=O)c3cccnc3)n2)n[nH]1 [Example 2-14]
JAK 1 (pKi) (JAK1): B (B represents a pKi value between 9 and 10 (Ki between 1 nM and 0.1 nM)) | THP-1 IL4 pIC50 [2]: C (key: A represents a pEC50 value ≥7.5 (EC50≤32 nM); B represents a pEC50 value between 6.7 and 7.5 (EC50 between 200 nM and 32 nM); C represents a pEC50 value <6.7 (EC50>200 nM))

COC(=O)C1(C(=O)N2[C@@H]3CCC[C@H]2C[C@H](Nc2nc(Nc4cc(C)[nH]n4)cc4ncccc24)C3)CC1 [Example 2-21]
JAK 1 (pKi) (JAK1): B (B represents a pKi value between 9 and 10 (Ki between 1 nM and 0.1 nM))

Cc1cc(Nc2cc3ncccc3c(N[C@@H]3C[C@H]4CCC[C@@H](C3)N4C(=O)C3(C)CCCC3)n2)n[nH]1 [Example 2-23]
JAK 1 (pKi) (JAK1): B (B represents a pKi value between 9 and 10 (Ki between 1 nM and 0.1 nM))

CCC1(S(=O)(=O)N2[C@@H]3CCC[C@H]2C[C@H](Nc2nc(Nc4cc(C)[nH]n4)cc4ncccc24)C3)CC1 [Example 4-20]
BEAS2B pIC50 [1]: A (key: A represents a pEC50 value ≥7.5 (EC50≤32 nM); B represents a pEC50 value between 6.7 and 7.5 (EC50 between 200 nM and 32 nM); C represents a pEC50 value <6.7 (EC50>200 nM))

CCS(=O)(=O)N1[C@@H]2CC[C@H]1C[C@H](Nc1nc(Nc3cc(C)[nH]n3)cc3nc(CN4CCOCC4)ccc13)C2 [Example 5-16]
BEAS2B pIC50 [1, 7]: B (B represents a pEC50 value between 6.7 and 7.5 (EC50 between 200 nM and 32 nM)) | THP-1 IL4 pIC50 [2, 8]: B (B represents a pEC50 value between 6.7 and 7.5 (EC50 between 200 nM and 32 nM))

Cc1cc(Nc2cc3ncccc3c(N[C@@H]3C[C@H]4CCC[C@@H](C3)N4S(=O)(=O)c3cccnc3)n2)n[nH]1 [Example 8, N^7-(5-methyl-1H-pyrazol-3-yl)-N-((1R,3s,5S)-9-(pyridin-3-ylsulfonyl)-9-azabicyclo[3.3.1]nonan-3-yl)-1,6-naphthyridine-5,7-diamine]
absorption at the portal vein (Fa %) [4]: less than 10% | DAI score as compared with vehicle treated animals [3]: statistically significant decrease

Cc1cc(Nc2cc3nc(CO)ccc3c(N[C@@H]3C[C@H]4CC[C@@H](C3)N4C(=O)OCC(C)C)n2)n[nH]1 [Example 12, Isobutyl (1R,3s,5S)-3-((2-(hydroxymethyl)-7-((5-methyl-1H-pyrazol-3-yl)amino)-1,6-naphthyridin-5-yl)amino)-8-azabicyclo[3.2.1]octane-8-carboxylate]
absorption at the portal vein (Fa %) [4]: less than 10% | DAI score as compared with vehicle treated animals [3]: statistically significant decrease

Cc1cc(Nc2cc3ncccc3c(N[C@@H]3C[C@H]4CC[C@@H](C3)N4CCC#N)n2)n[nH]1 [Form I, 3-((1R,3s,5S)-3-((7-((5-methyl-1H-pyrazol-3-yl)amino)-1,6-naphthyridin-5-yl)amino)-8-azabicyclo[3.2.1]octan-8-yl)propanenitrile]
weight gain / weight change (moisture sorption) [5]: less than 0.15%

C[C@@H]1CCN(C(=O)CC#N)C[C@@H]1N(C)c1ncnc2[nH]ccc12 [tofacitinib, reference compound]
B and T cell populations (spleen) [6]: No treatment effect
